The text below walks through data of US11767298B2, “Substituted benzimidazoles as inhibitors of transforming growth factor-β kinase” (Duke University, priority 2016, dated 2023).

Each structure is given as a SMILES string. “Also recorded” adds a separate entry of the source.

One assay addresses IRAK1 (Homo sapiens, UniProt P51617). The experiment in a line: Kinase profiling (Dundee), IRAK1. It is filed as biochemical. On the procedure:
(§1) Kinase selectivity profiling. The selectivity profile of HS-206 to inhibit mammalian kinases was tested against a panel of 140 kinases at a single concentration of 10 μM. Tests were performed using a radiolabeld (^33P-ATP) filter-binding assay at the International Centre for Kinase Profiling at the University of Dundee, UK (http://www.kinase-screen.mrc.ac.uk/).
(§2) This panel contains members of all major kinase families, including tyrosine kinases (TK), tyrosine kinase-like (TKL), sterile serine/threonine (STE), and CDK/MAPK/GSK/CLK (CMGC). […] For these kinases, IC50 values were determined (Table 1).

The test system of assay [1] is TAK1 downstream signaling (IKK, p38, NFκB) in Hela cells. Kind of assay: TNFα dependent signaling in Hela cells. It is filed as cell-based. The procedure: In order to investigate the effects of HS-206 on cellular signaling, MDA-MB-231 and Hela cells were pretreated with 10 μM HS-206 for 2 h and stimulated with TNFα (FIG. 8).
For a further assay, the target named is GCK (Homo sapiens, UniProt Q12851). The experiment in a line: Kinase profiling (Dundee), GCK. It is filed as biochemical. The settings on record: 10 μM. On the procedure: as §1, §2
The target of the next assay is MINK1 (Homo sapiens, UniProt Q8N4C8). Kind of assay: Kinase profiling (Dundee), MINK1. The settings on record: 10 μM. The assay is classed as biochemical. The procedure: as §1, §2
For a further assay, the target named is GFP-PfPK9 (Plasmodium falciparum, UniProt Q8IEG4). The experiment in a line: ATP-competitive binding assay (ATP-sepharose pull-down, FLECS). Conditions: GFP-PfPK9; Kd calculated from EC50 of ATP pull-down dose-response; read-out: Kd, app. The procedure:
Primary small-molecule screen. A small-molecule screen was performed similar to a previously reported fluorescence linked enzyme chemoproteomic strategy (FLECS). Briefly, HEK293-GFP-PfPK9 cells were grown in 182-cm^2 tissue culture flasks (Genesee Scientific) and harvested at ˜80% cell confluency. Before assays the culture medium was aspirated, cells were rinsed with ice cold PBS and then they were removed with a cell scraper. Cells were pelleted by centrifugation (2,000 rpm, 4° C., 2 min) and immediately lysed for assays. The pellet was suspended in buffer A (25 mM HEPES, pH 7.4, 150 mM NaCl, 60 mM MgCl2, 1 mM DTT) with 1 μM microcystin, 0.1% Triton X-100 plus a Roche Complete protease inhibitor tablet and then placed on ice for 30 min to facilitate lysis. The supernatant was collected after centrifugation (4,300 rpm, 4° C., 5 min) and used in subsequent screening and titrations experiments. For screening, the supernatant was added to ATP-sepharose beads (1:1) and incubated with agitation at 4° C. for at least 1 hr to allow binding. Following this incubation, the mixture was centrifuged, the ATP resin was washed with 9 column volumes of buffer A with 1 M NaCl and then 9 column volumes of buffer A. The ATP-sepharose medium was reconstituted as a 1:1 slurry with buffer A and then added to 96-well filter plates (50 μL/well) (Corning #3505) using a multichannel pipette (Rainin). The filter plate was on top of black 96-well catch plates (Corning #3915). An ATP dilution series (1-200 mM) was added to each plate as a positive control and DMSO was the negative control. Compounds and controls were all added to 50 μL per well in buffer A. For screening, compounds were tested in singlicate at 500 μM. The final DMSO concentration in every well was 5%. The fluorescence intensity in each well was measured on an EnVision system. Data analyses of screens were carried out in EXCEL (Microsoft, Corp.) and actives were identified as 2×background signal.
All screening positives that were verified with Western blot analysis were purchased from Enamine or Vitas-M laboratory. The purity of compounds 1-5 (shown below) was verified by high-resolution MS (Agilent). Compounds were tested in 8-point dose-response (0-500 μM) experiments in duplicate, essential as described above. The fluorescence intensity in each well was measured using an EnVision system. Dose-response analysis was performed with GraphPad Prism to acquire EC50 values. Determined EC50 values were used to calculate the observed PfPK9 Kd and reported values are the average of 2-3 independent experiments.
Stable cell line generation. The P. falciparum PK9 gene (PlasmoDB accession #PF3D7_1315100) was cloned into the pEGFP-C1 mammalian expression vector (Clontech) in frame with a […] GFP tag. For screening, HEK293 cells were transfected with the resulting PfPK9-pEGFP-C1 vector to generate HEK293-GFP-PfPK9 expressing cells using X-tremeGENE HP transfection reagent (Roche) per the manufacturer instructions. Briefly, the culture medium was replaced at 48 hours post-transfection with medium supplemented with 1 mg/mL G418 sulfate (Life Technologies) to select for stably transfected cells. Following stable cell selection, fluorescence activated cell sorting (FACS) was used to enrich for GFP-PfPK9 expressing cells. Subsequently, FACS sorted HEK293-GFP-PfPK9 cells were cultured with medium supplemented with 0.5 mg/mL G418 sulfate for all following experiments. Protein expression was verified by Western blot analysis probing for anti-GFP and by fluorescence intensity using an EnVision (PerkinElmer) system.
All 14 positive molecules were also tested for their binding affinity to PfPK9 using an optimized ATP-competitive binding assay. EC50 values ranging from low μM to low mM were observed and these EC50 values were used to derive dissociation constants as described previously. […]

Another assay relates to ATP-binding proteins. Kind of assay: ATP-beads off-target elution, HepG2 whole-cell lysates. Conditions: uninfected HepG2 lysate; compared to DMSO control.
The next assay has as its system 60 cell lines (NCI-60). The experiment in a line: NCI-60 Cell One-Dose Screen. The assay is classed as cell-based. The settings on record: 10 μM, 24 h. The procedure: In order to examine the effect of HS-206 on cell viability of different cancers, a screen of 60 cell lines was performed at the NCI, called the NCI-60 Cell One-Dose Screen. […] This screen determined growth inhibition as an effect of HS-206 treatment over a period of 24 h.

Chain of IRAK1 (P51617 whole entry): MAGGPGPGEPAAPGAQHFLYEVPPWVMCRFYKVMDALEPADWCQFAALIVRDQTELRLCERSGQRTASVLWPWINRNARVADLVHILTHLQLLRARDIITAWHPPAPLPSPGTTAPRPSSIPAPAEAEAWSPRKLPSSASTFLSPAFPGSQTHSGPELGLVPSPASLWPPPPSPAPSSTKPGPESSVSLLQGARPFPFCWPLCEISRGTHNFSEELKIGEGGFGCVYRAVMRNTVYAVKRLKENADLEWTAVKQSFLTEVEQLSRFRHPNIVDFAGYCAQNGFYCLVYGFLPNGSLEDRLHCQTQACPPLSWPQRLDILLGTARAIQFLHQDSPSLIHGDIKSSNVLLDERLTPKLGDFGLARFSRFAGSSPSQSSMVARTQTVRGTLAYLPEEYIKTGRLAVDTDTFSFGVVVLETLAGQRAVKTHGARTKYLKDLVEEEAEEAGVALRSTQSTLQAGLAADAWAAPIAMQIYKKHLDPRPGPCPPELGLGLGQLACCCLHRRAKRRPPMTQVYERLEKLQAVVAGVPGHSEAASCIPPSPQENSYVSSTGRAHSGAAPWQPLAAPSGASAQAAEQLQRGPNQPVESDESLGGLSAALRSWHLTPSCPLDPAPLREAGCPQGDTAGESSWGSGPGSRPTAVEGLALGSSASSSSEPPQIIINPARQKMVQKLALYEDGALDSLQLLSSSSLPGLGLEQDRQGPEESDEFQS
Chain of GCK (Q12851 whole entry): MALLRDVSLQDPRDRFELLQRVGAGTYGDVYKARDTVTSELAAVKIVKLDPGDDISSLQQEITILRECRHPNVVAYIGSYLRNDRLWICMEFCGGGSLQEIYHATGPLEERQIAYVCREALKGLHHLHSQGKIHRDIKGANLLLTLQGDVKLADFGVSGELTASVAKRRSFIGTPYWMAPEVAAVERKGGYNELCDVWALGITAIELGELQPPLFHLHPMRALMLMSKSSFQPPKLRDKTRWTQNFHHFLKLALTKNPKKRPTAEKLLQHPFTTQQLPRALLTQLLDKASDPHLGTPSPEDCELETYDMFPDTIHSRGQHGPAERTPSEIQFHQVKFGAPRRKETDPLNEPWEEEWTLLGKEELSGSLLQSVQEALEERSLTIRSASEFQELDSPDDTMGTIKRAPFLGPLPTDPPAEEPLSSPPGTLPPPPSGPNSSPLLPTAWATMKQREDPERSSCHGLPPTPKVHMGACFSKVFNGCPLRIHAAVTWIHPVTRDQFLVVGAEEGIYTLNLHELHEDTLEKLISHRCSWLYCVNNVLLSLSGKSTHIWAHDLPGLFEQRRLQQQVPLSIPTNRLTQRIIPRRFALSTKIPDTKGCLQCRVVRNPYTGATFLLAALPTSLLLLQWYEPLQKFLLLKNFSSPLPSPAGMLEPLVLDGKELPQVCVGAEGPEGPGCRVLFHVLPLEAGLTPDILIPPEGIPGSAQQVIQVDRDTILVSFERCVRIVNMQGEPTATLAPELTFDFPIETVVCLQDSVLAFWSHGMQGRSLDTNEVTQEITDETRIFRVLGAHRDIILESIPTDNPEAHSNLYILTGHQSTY
Chain of GFP-PfPK9 (Q8IEG4 entry or part of it): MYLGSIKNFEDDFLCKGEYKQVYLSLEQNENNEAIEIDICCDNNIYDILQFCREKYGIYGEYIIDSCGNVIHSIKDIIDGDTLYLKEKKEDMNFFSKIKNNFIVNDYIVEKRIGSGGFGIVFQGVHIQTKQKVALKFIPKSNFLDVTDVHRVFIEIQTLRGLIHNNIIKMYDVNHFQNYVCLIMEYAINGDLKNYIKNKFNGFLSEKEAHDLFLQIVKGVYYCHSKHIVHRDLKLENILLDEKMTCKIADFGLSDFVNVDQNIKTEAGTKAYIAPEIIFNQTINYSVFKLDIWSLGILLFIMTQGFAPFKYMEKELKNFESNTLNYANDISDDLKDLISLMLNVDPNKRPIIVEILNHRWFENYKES
Chain of MINK1 (Q8N4C8 whole entry): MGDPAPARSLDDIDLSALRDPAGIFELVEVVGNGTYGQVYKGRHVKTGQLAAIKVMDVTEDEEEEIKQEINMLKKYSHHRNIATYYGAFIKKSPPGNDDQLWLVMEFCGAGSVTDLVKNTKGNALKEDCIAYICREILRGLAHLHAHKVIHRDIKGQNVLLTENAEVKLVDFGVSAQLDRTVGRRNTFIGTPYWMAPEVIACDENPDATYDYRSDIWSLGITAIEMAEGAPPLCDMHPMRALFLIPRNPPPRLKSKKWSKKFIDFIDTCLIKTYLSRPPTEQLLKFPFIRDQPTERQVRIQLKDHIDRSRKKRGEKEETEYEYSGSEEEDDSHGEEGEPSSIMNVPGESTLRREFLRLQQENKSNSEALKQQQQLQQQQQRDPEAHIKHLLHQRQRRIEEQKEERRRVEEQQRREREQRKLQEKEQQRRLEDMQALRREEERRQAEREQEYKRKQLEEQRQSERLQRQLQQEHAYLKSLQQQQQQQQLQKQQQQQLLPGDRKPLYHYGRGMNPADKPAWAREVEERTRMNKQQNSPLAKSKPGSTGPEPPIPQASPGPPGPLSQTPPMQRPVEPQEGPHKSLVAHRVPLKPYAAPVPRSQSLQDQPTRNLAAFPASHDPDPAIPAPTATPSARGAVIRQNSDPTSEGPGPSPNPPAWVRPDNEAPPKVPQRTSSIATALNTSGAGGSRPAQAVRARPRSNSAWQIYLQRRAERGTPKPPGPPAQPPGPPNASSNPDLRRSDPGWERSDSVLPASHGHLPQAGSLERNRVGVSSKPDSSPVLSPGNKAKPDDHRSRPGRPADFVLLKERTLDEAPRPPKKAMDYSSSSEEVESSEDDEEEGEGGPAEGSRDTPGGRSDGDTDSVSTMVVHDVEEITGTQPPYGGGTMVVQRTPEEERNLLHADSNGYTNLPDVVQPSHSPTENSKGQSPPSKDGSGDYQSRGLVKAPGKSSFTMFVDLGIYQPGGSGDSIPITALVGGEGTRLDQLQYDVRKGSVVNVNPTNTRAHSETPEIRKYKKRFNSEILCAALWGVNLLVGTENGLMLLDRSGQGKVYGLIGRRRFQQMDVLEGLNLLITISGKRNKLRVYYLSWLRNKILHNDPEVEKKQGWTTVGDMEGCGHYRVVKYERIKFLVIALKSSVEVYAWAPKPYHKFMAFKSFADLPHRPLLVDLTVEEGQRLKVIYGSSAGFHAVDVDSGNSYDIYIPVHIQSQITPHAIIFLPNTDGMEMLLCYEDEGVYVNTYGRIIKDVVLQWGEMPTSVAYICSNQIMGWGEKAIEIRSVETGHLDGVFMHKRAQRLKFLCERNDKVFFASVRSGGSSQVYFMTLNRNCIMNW

A word on the IC50: it is the concentration at which inhibition is half-maximal. A higher IC50 goes with a need for much substance. Broadly, the inhibition is the drop in the measured response relative to a control, in per cent. `CCCn1c(NC(=O)c2cccc(C(N)=O)c2)nc2ccccc21` [HS-206 (1), (E)-N-(1-Propyl-1,3-dihydro-2H-benzo[d]imidazol-2-ylidene)isophthalamide] displayed an IC50 on IRAK1 of 0.39 ± 0.05 µM. Moreover, the inhibition at 10 µM against IRAK1 (10 μM), against GCK and against MINK1 was more than 90% each time. Also, in assay [1] (10 μM, 2 h pretreatment, TNFα stimulation), the “TNFα dependent signaling (activation of IKK and p38)” value was “inhibited activation of IKK and p38; also recorded: inhibits TNFα dependent signaling”. Further, the “dose-dependent inhibition of signaling upon TNFα stimulation” value in assay [1] (Hela cells) is “inhibits p38 and NFκB signaling in a dose-dependent manner; also recorded: dose-dependent inhibition of JNK and NFκB signaling”. Moreover, the Kd on GFP-PfPK9 is 0.2 µM. For the same compound, the “elution of ATP-binding proteins from ATP-sepharose beads” value with ATP-binding proteins is reported as “did not lead to any significant elution of ATP-binding proteins”. Further, the “growth inhibition, one-dose screen” value with 60 cell lines (NCI-60) (colorectal (KM12), leukemia (HL-60), non-small cell lung cancer (NCI-H522)) is on record as “most affected”; with 60 cell lines (NCI-60) (melanoma (M14), renal (786-0), ovarian cancer (Ovcar-3)) it was “little effect”.
